Reference: patent US9340574B2, “Inhibitors of protein tyrosine phosphatases” (Indiana University Research and Technology Corporation, priority 2012, dated 2016)

How the values were obtained:
PTP-MEG2 = PTP-MEG2 (Homo sapiens (Human), UniProt P43378); assay: pNPP hydrolysis enzyme assay, PTP-MEG2; format: biochemical; conditions: for IC50: pNPP substrate, pH 7.0, 25° C., read-out: IC50 for PTP-MEG2
Procedure: (§1) Enzyme kinetic assay. PTP activity was assayed using p-nitrophenyl phosphate (pNPP) as a substrate in 3,3-dimethylglutarate buffer (50 mM 3,3-dimethylglutarate, pH 7.0, 1 mM EDTA, 150 mM NaCl, 2 mM DTT, 0.1 mg/mL BSA) at 25° C. The assays were performed in 96-well plates. Normally, to determine the IC50 values, the reaction was initiated by the addition of enzyme (final concentration at 10 nM) to a reaction mixture (0.2 mL) containing 2 mM (Km for the substrate) pNPP with various concentrations of inhibitors. The reaction rate was measured using a SpectraMax Plus 384 Microplate Spectrophotometer (Molecular Devices). To determine the mode of inhibition, the reactions were initiated by the addition of PTP-MEG2 to the reaction mixtures (0.2 mL) containing various concentrations of pNPP with different concentrations of the inhibitor 7. Data were fitted using SigmaPlot Enzyme Kinetics Module (Systat Software, Inc.).
PTP-MEG2 Overexpression, and Purification. The expression vector containing residues 277-582 of PTP-MEG2 catalytic domain was provided by Stefan Knapp at the University of Oxford. For protein expression, transformed cells were grown at 37° C. in Luria broth (LB) containing […] ampicillin for 4 h to an OD600 nm @0.6, and then induced for overnight at 18° C. with 0.4 mM IPTG. Cells were harvested by centrifugation (6500 rpm for 15 min at 4° C.), and the cell pellets from 1.5 L LB medium were suspended in 30 mL of ice-cold lysis buffer consisting of 5 mM imidazole, 500 mM NaCl, 20 mM Tris-HCl (pH 7.9), 0.05 mg/mL trypsin inhibitor and 0.1 mM PMSF. The suspensions were passed twice through a French Press at 1200 psi, and the cell lysates were centrifuged at 4° C. for 30 min at 16,000 rpm. The supernatants were mixed with 2 mL Ni-NTA Agarose (His*Bind Resin) (Qiagen) at 4° C. for 1 hour, then transferred mixture to an empty column. The column was washed by 200 mL binding buffer (5 mM imidazole, 500 mM NaCl, 20 mM Tris-HCl (pH 7.9)), followed by 20 mL wash buffer (20 mM imidazole, 500 mM NaCl, 20 mM Tris-HCl (pH 7.9)), and then eluted with 20 mL elution buffer (200 mM imidazole, 500 mM NaCl, 20 mM Tris-HCl (pH 7.9), 5 mM DTT). The elution was dialyzed for 6 h at 4° C. against 1 L buffer A (50 mM NaCl, 20 mM MES (pH6.0), 1 mM EDTA), and then loaded onto a Mono S column equilibrated at 4° C. with buffer A. The column was washed with 10 ml buffer A and then eluted with a 40 mL linear gradient of 0 to 1M NaCl in buffer A. The PTP-MEG2 was eluted at 0.35 M NaCl. The column fractions were analyzed by measuring the absorbance at 280 nm and by carrying out SDS-PAGE analysis. The fractions were combined, dialyzed against 1 L buffer A and concentrated at 4° C. to 8 mg/mL using an Amicon concentrator and then stored at −80° C.

PTP1B = PTP1B (Homo sapiens (Human), UniProt P18031); assay: pNPP hydrolysis enzyme assay, PTP1B; format: biochemical
PTP1B, sequence (P18031 whole entry, species assumed): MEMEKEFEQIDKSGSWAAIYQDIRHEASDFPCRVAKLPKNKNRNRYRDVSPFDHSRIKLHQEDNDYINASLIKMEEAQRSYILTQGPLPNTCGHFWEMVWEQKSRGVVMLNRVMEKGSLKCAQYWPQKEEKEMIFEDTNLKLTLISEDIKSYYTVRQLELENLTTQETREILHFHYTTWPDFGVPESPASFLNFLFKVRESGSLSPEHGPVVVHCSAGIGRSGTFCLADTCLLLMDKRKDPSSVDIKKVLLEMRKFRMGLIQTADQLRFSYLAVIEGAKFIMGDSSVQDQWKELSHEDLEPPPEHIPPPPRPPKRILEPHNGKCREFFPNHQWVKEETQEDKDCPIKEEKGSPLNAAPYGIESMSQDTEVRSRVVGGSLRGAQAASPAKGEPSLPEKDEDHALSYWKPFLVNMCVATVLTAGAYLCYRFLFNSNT
Procedure: as §1

PTP-MEG2, sequence (P43378 277-582): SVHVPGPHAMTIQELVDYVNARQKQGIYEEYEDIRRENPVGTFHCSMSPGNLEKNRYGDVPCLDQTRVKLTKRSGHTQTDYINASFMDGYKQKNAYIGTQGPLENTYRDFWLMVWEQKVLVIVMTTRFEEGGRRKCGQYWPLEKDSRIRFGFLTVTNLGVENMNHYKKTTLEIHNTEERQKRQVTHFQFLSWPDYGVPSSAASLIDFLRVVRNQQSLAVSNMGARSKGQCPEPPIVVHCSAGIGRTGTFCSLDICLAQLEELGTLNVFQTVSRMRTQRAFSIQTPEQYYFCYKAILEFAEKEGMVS

| improvement in potency / binding affinity for PTP-MEG2 over the preceding lead (PTP-MEG2; Compound 5 vs Compound 3, Compound 7 vs Compound 5) | IC50 (PTP1B; pNPP substrate) | selectivity for PTP-MEG2 over PTP1B (PTP1B; ratio of IC50 values) | Compound | IC50 (PTP-MEG2) |
| --- | --- | --- | --- | --- |
|  |  |  | CC(=O)NC(Cc1ccc(C(F)(F)P(=O)(O)O)cc1)C(=O)NC(CCCNC(=O)c1cccc(I)c1)C(N)=O (centres unmarked) [Compound 3] | 900 ± 20 nM |
| 3.3 fold | 3400 ± 80 nM | 12.6 fold | Cc1ccc(C(=O)NC(Cc2ccc(C(F)(F)P(=O)(O)O)cc2)C(=O)NC(CCCNC(=O)c2cccc(I)c2)C(N)=O)cc1Br (centres unmarked) [Compound 5] | 270 ± 70 nM |
